Source: ChEMBL document CHEMBL1255288, “Linezolid resistance in Staphylococcus aureus: gene dosage effect, stability, fitness costs, and cross-resistances” (2008)
Converted amounts (≈) assume the structure as drawn. The source made the active and inactive calls. The rule behind the calls is not given here.

Experiments:
Staphylococcus aureus [1] = test: Antibacterial activity against Staphylococcus aureus T2019 with G2576T mutation in 23S rRNA genes by disc diffusion method; assay type: functional, organism-based
Staphylococcus aureus [2] = test: Antibacterial activity against Staphylococcus aureus T991 by disc diffusion method; assay type: functional, organism-based
Staphylococcus aureus [3] = test: Antibacterial activity against Staphylococcus aureus T991 by Etest method; assay type: functional
Staphylococcus aureus [4] = test: Antibacterial activity against Staphylococcus aureus T2019 with G2576T mutation in 23S rRNA genes by Etest method; assay type: functional
Staphylococcus aureus [5] = test: Antibacterial activity against Staphylococcus aureus T1888 expressing 23S rrn 3 G2576T and rrn 5 G2576T mutants by Etest method; assay type: functional
Staphylococcus aureus [6] = test: Antibacterial activity against Staphylococcus aureus T2019/50 expressing 23S rrn1 G2576T, rrn3 G2576T, rrn4 G2576T and rrn5 G2576T mutants by Etest method; assay type: functional
Staphylococcus aureus [7] = test: Antibacterial activity against Staphylococcus aureus T1910 expressing 23S rrn2 G2576T, rrn3 G2576T, rrn4 G2576T and rrn5 G2576T mutants by Etest method; assay type: functional
Staphylococcus aureus [8] = test: Antibacterial activity against Staphylococcus aureus T1900 expressing 23S rrn3 G2576T, rrn4 G2576T and rrn5 G2576T mutants by Etest method; assay type: functional
Staphylococcus aureus [9] = test: Antibacterial activity against Staphylococcus aureus T2019 expressing 23S rrn1 G2576T, rrn2 G2576T, rrn3 G2576T, rrn4 G2576T and rrn5 G2576T mutants by Etest method; assay type: functional

For `O=C(N[C@H](CO)[C@H](O)c1ccc([N+](=O)[O-])cc1)C(Cl)Cl`, the MIC (Staphylococcus aureus [1]) was “inactive” and the Activity (Staphylococcus aureus [2]) was “Active”.
For `CCC[C@@H]1C[C@@H](C(=O)N[C@@H]([C@H]2O[C@H](SC)[C@H](O)[C@@H](O)[C@H]2O)[C@H](C)Cl)N(C)C1` [CLINDAMYCIN], the MIC (Staphylococcus aureus [3]) was greater than 256 mg/L and the MIC (Staphylococcus aureus [4]) was greater than 256 mg/L.
With `C[C@H]1c2cccc(O)c2C(=O)C2=C(O)[C@]3(O)C(=O)C(C(N)=O)=C(O)[C@@H](N(C)C)[C@@H]3[C@@H](O)[C@@H]21.O` [DOXYCYCLINE] the MIC (Staphylococcus aureus [3]) was 6 mg/L and the MIC (Staphylococcus aureus [4]) was 6 mg/L.
In the case of `CC[C@H]1OC(=O)[C@H](C)[C@@H](O[C@H]2C[C@@](C)(OC)[C@@H](O)[C@H](C)O2)[C@H](C)[C@@H](O[C@@H]2O[C@H](C)C[C@H](N(C)C)[C@H]2O)[C@](C)(O)C[C@@H](C)C(=O)[C@H](C)[C@@H](O)[C@]1(C)O` [ERYTHROMYCIN], the MIC (Staphylococcus aureus [3]) is reported as greater than 256 mg/L and the MIC (Staphylococcus aureus [4]) is reported as greater than 256 mg/L.
`CC(=O)O[C@H]1C[C@@]2(C)[C@@H](C[C@@H](O)[C@H]3[C@@]4(C)CC[C@@H](O)[C@@H](C)[C@@H]4CC[C@@]32C)/C1=C(\CCC=C(C)C)C(=O)O` [FUSIDIC ACID] was tested, and the MIC (Staphylococcus aureus [3]) was 0.19 mg/L (≈ 0.368 µM) and the MIC (Staphylococcus aureus [4]) was 0.5 mg/L (≈ 0.968 µM).
For `CC(=O)NC[C@H]1CN(c2ccc(N3CCOCC3)c(F)c2)C(=O)O1` [LINEZOLID], the MIC (Staphylococcus aureus [3]) was 1 mg/L (≈ 2.96 µM), the MIC (Staphylococcus aureus [5]) was 8 mg/L (≈ 23.7 µM) and the MIC (Staphylococcus aureus [6]) was 64 mg/L (≈ 190 µM). The MIC (Staphylococcus aureus [7]) was 64 mg/L (≈ 190 µM), the MIC (Staphylococcus aureus [4]) was 128 mg/L (≈ 379 µM) and the MIC (Staphylococcus aureus [8]) was 32 mg/L (≈ 94.9 µM). For the same molecule, the MIC (Staphylococcus aureus [9]) was 128 mg/L (≈ 379 µM).
Work on `CN(C)c1cc(NC(=O)CNC(C)(C)C)c(O)c2c1C[C@H]1C[C@H]3[C@H](N(C)C)C(O)=C(C(N)=O)C(=O)[C@@]3(O)C(O)=C1C2=O` [TIGECYCLINE] yielded an MIC (Staphylococcus aureus [3]) of 1 mg/L (≈ 1.71 µM) and an MIC (Staphylococcus aureus [4]) of 0.75 mg/L (≈ 1.28 µM).
Work on GENTAMICIN yielded an MIC (Staphylococcus aureus [3]) of 256 mg/L and an MIC (Staphylococcus aureus [4]) of 256 mg/L.
